Data published in patent US10124004B2, “Pyrido[3,4-d]pyrimidine derivative and pharmaceutically acceptable salt thereof” (Teijin Pharma Limited, priority 2015, dated 2018).
Read-outs that look alike come from different tables or passages of the source.

Experiments:
CDK4/cyclin D3 = molecular target: T1, CDK4/cyclin D3 (Homo sapiens, UniProt P11802); test: Human CDK4/cyclin D3 inhibitory activity (QS S Assist CDK4/Cyclin D3_FP Kit, IMAP fluorescence polarization); assay type: biochemical
T1 construct: purchased Carna Biosciences, Inc. QS S Assist CDK4/Cyclin D3_FP Kit
T1 sequence (P11802 whole entry): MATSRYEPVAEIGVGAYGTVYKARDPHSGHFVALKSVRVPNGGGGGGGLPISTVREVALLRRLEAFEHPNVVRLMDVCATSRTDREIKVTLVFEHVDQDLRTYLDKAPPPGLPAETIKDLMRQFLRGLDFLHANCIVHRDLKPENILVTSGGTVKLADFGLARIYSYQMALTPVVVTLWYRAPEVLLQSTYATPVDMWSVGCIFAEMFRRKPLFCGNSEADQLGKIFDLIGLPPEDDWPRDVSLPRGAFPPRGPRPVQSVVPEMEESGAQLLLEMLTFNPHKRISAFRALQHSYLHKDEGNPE
T1 sequence (P30281 whole entry partner): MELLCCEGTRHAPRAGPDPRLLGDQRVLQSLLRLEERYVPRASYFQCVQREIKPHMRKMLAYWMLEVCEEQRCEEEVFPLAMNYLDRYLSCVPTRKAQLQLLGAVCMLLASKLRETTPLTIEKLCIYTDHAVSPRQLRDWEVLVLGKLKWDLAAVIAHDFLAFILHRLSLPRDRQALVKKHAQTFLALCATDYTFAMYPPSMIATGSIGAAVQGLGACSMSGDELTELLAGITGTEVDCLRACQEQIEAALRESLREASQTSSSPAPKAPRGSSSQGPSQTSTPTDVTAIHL
Procedure, shortened: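 IMAP fluorescence-polarization kinase assay with kit ATP/substrate/metal mix and 12.5 to 25 ng/well enzyme in 20 mM HEPES pH 7.4, 0.01% Tween20, 2 mM DTT. Reaction ran 45 min at room temperature, then binding reagent was added for 30 min in the dark. IC50 was taken from dose-response fits of percent inhibition.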

CDK2/cyclin A2 = molecular target: T2, CDK2/cyclin A2 (Homo sapiens, UniProt P24941); test: Human CDK2/cyclin A2 inhibitory activity (QS S Assist CDK2/Cyclin A2_FP Kit, IMAP fluorescence polarization); assay type: biochemical
T2 construct: purchased Carna Biosciences, Inc. QS S Assist CDK2/Cyclin A2_FP Kit
Procedure, shortened: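 Kinase activity read as fluorescence polarization (485/535 nm) after phosphorylated fluorescent substrate binds IMAP reagent (30 min, RT, dark). Enzyme (2.5 ng/well) reacted 60 min at RT with ATP/substrate/metal in HEPES pH 7.4 buffer with Tween 20 and DTT; no-enzyme wells define 0% activity; IC50 by curve fit.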

[1] = 50% inhibitory concentration against CDK4/cyclin D3, given as class symbol
[2] = 50% inhibitory concentration against CDK2/cyclin A2, given as class symbol
[3] = Human CDK4/cyclin D3 inhibitory activity, read-out: CDK4 Activity symbol
[4] = Human CDK2/cyclin A2 inhibitory activity, read-out: CDK2 Activity symbol

Structure (SMILES)	IC50 (CDK4/cyclin D3; [1])	IC50 (CDK2/cyclin A2; [2])	IC50 (CDK4/cyclin D3; [3])	IC50 (CDK2/cyclin A2; [4])
CCCNc1nc(C2(C)COC2)cc2cnc(Nc3ccc(CN4CCNCC4)cn3)nc12 [Compound 1003]	< 10 nM	≥ 100 nM	–	–
CO[C@H](C)c1cc2cnc(Nc3ccc(CCO)cn3)nc2c(NC(C)C)n1 [Compound 223]	–	–	< 10 nM	≥ 100 nM
C[C@@H](O)c1cc2cnc(Nc3ccc(N4CCNCC4=O)cn3)nc2c(NC2CCC(C)(C)OC2)n1 (some centres unmarked) [Compound 649]	< 10 nM	≥ 100 nM	–	–
Cc1nc(Nc2ncc3cc([C@@H](C)O)nc(NCC4CC4)c3n2)ccc1N1CCNCC1 [Compound 1095]	< 10 nM	≥ 100 nM	–	–
CCCNc1nc([C@@H](C)O)cc2cnc(Nc3ccc(O[C@@H]4CCN(CCO)C4)cn3)nc12 [Compound 1059]	< 10 nM	≥ 100 nM	–	–
CC(C)Nc1nc(C(F)F)cc2cnc(Nc3ccc(CCCC(=O)O)cn3)nc12 [Compound 136]	–	–	10 to 100 nM	≥ 100 nM
CC(C)Nc1nc([C@@H](C)O)cc2cnc(Nc3ccc(OCCN(C)C)nn3)nc12 [Compound 474]	–	–	< 10 nM	≥ 100 nM
CCCNc1nc(C(C)=O)cc2cnc(Nc3ccc(CN4CCN(CCO)CC4)cn3)nc12 [Compound 974]	10 to 100 nM	≥ 100 nM	–	–
CC(C)Oc1nc(C(C)O)cc2cnc(Nc3ccc(N4CCNCC4)nn3)nc12 (centres unmarked) [Compound 269]	–	–	< 10 nM	≥ 100 nM
CNCCOc1ccc(Nc2ncc3cc([C@@H](C)O)nc(N[C@H]4CCCOC4)c3n2)nc1 [Compound 635]	< 10 nM	≥ 100 nM	–	–
CC(C)Nc1nc([C@@H](C)O)cc2cnc(Nc3ccc(N4CCN(CC(C)(C)O)CCC4=O)cn3)nc12 [Compound 643]	< 10 nM	≥ 100 nM	–	–
COC[C@H](C)Nc1nc([C@@H](C)O)cc2cnc(Nc3ccc(N4CCC(O)CC4)nn3)nc12 [Compound 760]	10 to 100 nM	≥ 100 nM	–	–
CC(C)Nc1nc([C@@H](C)O)cc2cnc(Nc3ccc(N4CC5(CC(O)C5)C4)nn3)nc12 [Compound 524]	–	–	< 10 nM	≥ 100 nM
C[C@@H](O)c1cc2cnc(Nc3ccc(CN4CCNCC4)cn3)nc2c(NCC2CCOCC2)n1 [Compound 312]	–	–	< 10 nM	≥ 100 nM
CC(C)Nc1nc([C@@H](C)O)cc2cnc(Nc3ccc(N4CC[C@@H](O)C4)nn3)nc12 [Compound 661]	< 10 nM	≥ 100 nM	–	–
CC(C)Nc1nc([C@@H](C)O)cc2cnc(Nc3ccc(N4CCC(N)C4=O)cn3)nc12 (some centres unmarked) [Compound 583]	–	–	< 10 nM	≥ 100 nM
CC(C)Nc1nc([C@@H](C)O)cc2cnc(Nc3ccc(C(=O)NCCN(C)C)cn3)nc12 [Compound 1164]	< 10 nM	≥ 100 nM	–	–
CNCCOc1ccc(Nc2ncc3c(Cl)c([C@@H](C)O)nc(N[C@H]4CCCOC4)c3n2)nc1 [Compound 755]	< 10 nM	≥ 100 nM	–	–
CC(C)Nc1nc(C(F)F)cc2cnc(Nc3ccc(CN4CCC(C(=O)O)C4)cn3)nc12 (centres unmarked) [Compound 190]	–	–	< 10 nM	10 to 100 nM
CO[C@H](C)c1cc2cnc(Nc3ccc(CN4CCN(CCO)CC4)cn3)nc2c(N[C@@H](C)CO)n1 [Compound 915]	< 10 nM	≥ 100 nM	–	–
C[C@@H](O)c1cc2cnc(Nc3ccc(OCCN(C)C)cn3)nc2c(N[C@H]2CCCOC2)n1 [Compound 629]	< 10 nM	≥ 100 nM	–	–
C[C@@H](O)c1cc2cnc(Nc3ccc(N4CCN(C=O)CC4=O)cn3)nc2c(N[C@H]2CCOC2)n1 [Compound 354]	–	–	10 to 100 nM	≥ 100 nM
CCNc1nc([C@@H](C)O)cc2cnc(Nc3ccc4c(n3)CCN(C(=O)OCCN(C)C)C4)nc12 [Compound 1142]	< 10 nM	≥ 100 nM	–	–
CCNc1nc([C@@H](C)O)cc2cnc(Nc3ccc(CN4CCN(CCO)C[C@H]4C)cn3)nc12 [Compound 982]	< 10 nM	≥ 100 nM	–	–
C[C@@H](O)c1cc2cnc(Nc3ccc(CN4CCN(CCO)CC4)cn3)nc2c(NC2CC(F)C2)n1 (some centres unmarked) [Compound 1171]	< 10 nM	≥ 100 nM	–	–
